For one series, the system named is human subjects. To be noted: cited from earlier work.
Another series has as its system fat tissue. As to the kind of experiment: Propylene glycol as co-solvent injected with polidocanol. It counts as in vivo.
The next series has as its system inguinal fat pad. Put plainly: Inguinal fat pad mass after a single treatment of polidocanol. It counts as in vivo. To be noted: for reduction in inguinal fat pad mass: day 28 after a single treatment. The procedure: For example, reductions in inguinal fat pad mass of 15% were found at day 28 after a single treatment of polidocanol at doses of 0.5% and 1.25%. […] Thus, in embodiments, the polidocanol is administered approximately once per month and/or at concentrations less than about 2.0%. The treatment may employ about 0.1 to 0.3 mL (e.g. 0.2 mL) of a polidocanol at a concentration provided herein. In embodiments, the polidocanol is a concentration of from about 0.5% and 1.25%. The administration may be via injection. In embodiments, the injection is at a spacing of about 0.2 to 0.8 cm apart across the inguinal fat pad. Thus, in embodiments, the polidocanol is administered approximately once per month and/or at concentrations less than 2.0%. The treatment may employ 0.1 to 0.3 mL (e.g., 0.2 mL) of a polidocanol at a concentration provided herein. In embodiments, the polidocanol is a concentration of from 0.5% and 1.25%. The administration may be via injection. In embodiments, the injection is at a spacing of 0.2 to 0.8 cm apart across the inguinal fat pad. In embodiments, the injection is at a spacing of about 0.5 cm apart across the inguinal fat pad.

The mark [1] stands for this setting: Kybella Label, spontaneous and elicited AEs, 1-week post-injection.

For the compound `C[C@H](CCC(=O)O)[C@H]1CC[C@H]2[C@@H]3CC[C@@H]4C[C@H](O)CC[C@]4(C)[C@H]3C[C@H](O)[C@]12C` [Kybella, deoxycholic acid], in the series with human subjects (setting [1]), the “AE Proportions Post Treatment: Anesthesia (Numbness)” value was 66%, the “AE Proportions Post Treatment: Bruising” value was 72%, the “AE Proportions Post Treatment: Edema/Swelling” value is reported as 87% and the “AE Proportions Post Treatment: Erythema” value is recorded as 27%. Also, in the series on human subjects (setting [1]), the “AE Proportions Post Treatment: Induration” value is reported as 23%, the “AE Proportions Post Treatment: Nerve Injury” value is given as 4%, the “AE Proportions Post Treatment: Nodule” value is listed as 13% and the “AE Proportions Post Treatment: Pain” value is recorded as 70%. Also, in the series on human subjects (setting [1]), the “AE Proportions Post Treatment: Paresthesia” value is recorded as 14% and the “AE Proportions Post Treatment: Pruritis” value is 12%. In addition, in the series with human subjects (Kybella Label), the “Injection site adverse events lasting >30 days: Edema/Swelling” value is 20%, the “Injection site adverse events lasting >30 days: Induration” value is recorded as 13%, the “Injection site adverse events lasting >30 days: Injection Site Pain” value was 16% and the “Injection site adverse events lasting >30 days: Numbness” value is reported as 42%. In addition, in the series with human subjects (compared to placebo, FIGS. 9A and 9B), the “injection-site adverse events (swelling/edema, bruising, pain) per treatment session” value was “significantly higher percentage of subjects exhibited an adverse reaction”. In the series with human subjects (subcutaneous injection), the “of said subjects, injection related side effect which lasts for more than 30 days” value was “up to 42%” and the “subjects exhibiting an injection related side effect” value is ≤ 87%.
Take `CC(O)CO` (centres unmarked) [propylene glycol]: in the series on fat tissue, the “irritation when injected with polidocanol” value was “non-irritating”; the “patchy and incomplete fat tissue necrosis relative to the absence of co-solvent” value was “reduced amount of patchy and incomplete fat tissue necrosis”.
As to polidocanol, the “reduction in inguinal fat pad mass” value with inguinal fat pad (concentration 2.0%) was 10%; in the series with inguinal fat pad (dose 0.5%), 15%; with inguinal fat pad (dose 1.25%), 15%. In the series with inguinal fat pad (in vivo), the “visible change of inguinal fat pad / body contour” value is listed as “externally visible reduction in inguinal fat pad fullness”.

The values are drawn from US20260174867A1, “REDUCTION OF ADIPOSE TISSUE” (LEIOS THERAPEUTICS, INC., priority 2023, published 2026).
